Reference: US20240208998A1, “COMPOUNDS FOR USE IN THE TREATMENT OF HYPERPROLIFERATIVE DISORDERS” (FUNDACIÓ PRIVADA INSTITUT D'INVESTIGACIÓ ONCOLÓGICA DE VALL …, priority 2021, published 2024)

Key:
human TET2 construct = human TET2 construct (Homo sapiens, UniProt Q6N021, A1837G/A1840G/D1704G/D1842G/DEL1471-1702/DEL1708-1833/E1841G/F1706G/N1843S/Q1834G/V1836G); test: Determination of TET2 binding by Surface Plasmon Resonance; conditions: SPR, Biacore T200, 25° C., steady state fit to single site interaction model
Procedure: The human methylcytosine dioxygenase TET2 construct used (1129-2002 with residues 1471-1843 replaced by a 15-residue GS-linker) was expressed in a pET-28a(+)psumo vector with kanamycin resistance and an N-terminal His6 tag, and cloned in Rosetta D3 Escherichia coli competent cells. Transformed cells were cultured overnight in 10 mL of LB media supplied with kanamycin (50 μg/mL), then scaled to 1 L LB medium supplied with kanamycin (50 μg/mL) and grown at 37° C. Once the optical density (OD600) achieved 0.8, protein expression was induced with 0.4 mM isopropyl-β-thiogalactopyranoside (IPTG) overnight at 18° C. Cells were harvested by centrifugation (8,000 rpm, 4° C., 30 min) and the pellet obtained was resuspended in 15 mL of buffer A (50 mM Hepes, 150 mM NaCl, 30 mM imidazole, 2 mM β-mercaptoethanol (pH 8.0) supplemented with Pierce protease inhibitor cocktail (ThermoFisher Scientific)) and lysed by sonication (1 min 40 s: 10 cycles×10 s ON, 30 s OFF, A=35%, T=19° C.) followed by two consecutive centrifugations (8,000 rpm, 4° C., 30 min) to clarify the lysate.
The TET2 protein was purified using an AKTA Start system (GE Healthcare, Uppsala, Sweden) by two-step purification procedure: one His-affinity chromatography followed by a size exclusion chromatography. First, the protein fraction obtained during the lysis (supernatant) was applied to a 5 mL HisTrap HP column (GE Healthcare), washed with buffer A (50 mM Hepes, 150 mM NaCl, 30 mM imidazole, 2 mM […] (pH 8.0)) and the bound protein was eluted with buffer B (50 mM Hepes, 150 mM NaCl, 250 mM imidazole, 2 mM β-mercaptoethanol (pH 8.0)). The eluted protein-containing fractions were pooled and concentrated up to 4 mL for the last purification step: a size exclusion chromatography (HiPrep 16/60 Sephacryl S-100 HR) in 50 mM Hepes, 150 mM NaCl, 2 mM β-mercaptoethanol (pH 8.0). Finally, the mass and purity of the protein were verified by SDS-electrophoresis and mass spectrometry.
The binding of compounds of the examples was determined by Surface Plasmon Resonance (SPR) using a Biacore T200 SPR biosensor instrument (GE Healthcare, Uppsala, Sweden) at 25° C. The human TET2 construct was immobilized on a CM5 sensor chip using a standard covalent immobilization via amine coupling following the activation of the carboxymethyl dextran matrix of the sensor chip (injection of a solution containing 0.1 M N-hydroxysuccinimide and 0.4 M 1-ethyl-3-[3-(dimethylamino)propyl]carbodiimide hydrochloride at a flow rate of 15 μL/min for 7 min). The protein immobilization was achieved after the injection of 5 μg/mL TET2 in 10 mM sodium acetate (pH 4.0) at a flow rate of 5 μL/min. Unreacted activated groups of the dextran matrix were deactivated by injection of 1 M ethanolamine hydrochloride for 7 min at a flow rate of 15 μL/min. The corresponding matrix activation and protein immobilization were performed using as a running buffer a phosphate buffered saline solution (1.05× PBS: 10 mM phosphate, pH 7.4, 150 mM NaCl). The screened compounds were prepared in a 20 mM stock solution in DMSO and diluted with 1.05× PBS to achieve a final 5% (v/v) DMSO concentration. The running buffer of the interaction assays consisted of 1×PBS, 5% (v/v) DMSO. The flow rate used for the screening was 60 μL/min and the ligand association and dissociation times set were 60 s and 120 s, respectively.
For data analysis the software used was the Biacore T200 Evaluation software. Different corrections were applied. First, the nonspecific binding to the chip surface and the baseline drift were corrected subtracting the signals of a reference surface (where the immobilization procedure was carried out without proteins) to the signals obtained on the TET2 surface. Second, a series of solvent standards (solvent correction) were introduced to remove the differences derived from the DMSO. Finally, the background was corrected subtracting blank injections (blank subtraction) to the injected compound signals.

HL60 cell line = test: Antiproliferative activity on HL60 cell line (CellTiter-Glo); type: cell-based; conditions: Homo sapiens, HL-60; HL60, 72 h of treatment
Procedure: The human leukaemic cell line HL60 was grown in suspension in RPMI 1640 medium containing 10% (v/v) FBS and 1% (v/v) P/S (Life Technologies). […] Leukaemia cells were suspended at a density of 2×10^5 cells/mL in complete RPMI 1640 medium and 25 μL were seeded in each well (5×10^3 final total cells/well). A 10 μM solution of the compounds of examples 1, 12 and 21, and a 25 μM solution of all other compounds were prepared in complete medium, and then serially diluted (1:2) (as specified in Table 3 below). A solution of complete medium with DMSO was used as a vehicle control.
Twenty-five microliters of each serially diluted compound solution were added to the corresponding wells of the plate (50 μL of final volume/well). After 48 h of treatment, 50 μL of fresh 2X serially diluted compound solution was added to their corresponding wells (100 μL of final volume/well). After twenty-four additional hours, an equal volume (100 μL) of CellTiter-Glo Reagent (Promega) was added to each well, plates were shaken during 2 min and incubated at rt for 10 min. Luminescence was recorded using a Spark multimode microplate reader and an integration time of 1 s per well.

Row | Kd (human TET2 construct) [µM] | melting point [°C] | EC50 (HL60 cell line) [µM] | SMILES
1 | 9 | 140 to 142 | – | Cc1cn2cc(CC(=O)Nc3nc(-c4c(C)[nH]c5ccccc45)cs3)nc2s1 [Example 9, N-[4-(2-methyl-1H-indol-3-yl)thiazol-2-yl]-2-(2-methylimidazo[2,1-b]thiazol-6-yl)acetamide]
2 | 16 | 239 to 242 | 1.3 | Cc1[nH]c2ccccc2c1-c1csc(NC(=O)Cc2nc3ccccc3o2)n1 [Example 3, 2-(benzo[d]oxazol-2-yl)-N-[4-(2-methyl-1H-indol-3-yl)thiazol-2-yl]acetamide]
3 | 11 | 107 to 112 | 4.9 | Cc1[nH]c2ccccc2c1-c1csc(NC(=O)Cc2c[nH]cn2)n1 [Example 17, 2-(1H-imidazol-4-yl)-N-[4-(2-methyl-1H-indol-3-yl)thiazol-2-yl]acetamide]
4 | 10 | 114 to 119 | 0.072 | Cc1[nH]c2ccccc2c1-c1csc(NC(=O)Cc2cn3cc(F)ccc3n2)n1 [Example 8, 2-(6-fluoroimidazo[1,2-a]pyridin-2-yl)-N-[4-(2-methyl-1H-indol-3-yl)thiazol-2-yl]acetamide]
5 | 5 | 233 to 235 | – | Cc1[nH]c2ccccc2c1-c1csc(NC(=O)Cc2sc3ccccc3c2C)n1 [Example 20, N-[4-(2-methyl-1H-indol-3-yl)thiazol-2-yl]-2-(3-methylbenzo[b]thiophen-2-yl)acetamide]
6 | 15 | 160 to 163 | 4.3 | Cc1[nH]c2ccccc2c1-c1csc(NC(=O)Cc2csc3nccn23)n1 [Example 2, 2-(imidazo[2,1-b]thiazol-3-yl)-N-[4-(2-methyl-1H-indol-3-yl)thiazol-2-yl]acetamide]
7 | 2 | 139 to 142 | 2.2 | Cc1[nH]c2ccccc2c1-c1csc(NC(=O)Cc2cn(C)c3ccccc23)n1 [Example 11, 2-(1-methyl-1H-indol-3-yl)-N-[4-(2-methyl-1H-indol-3-yl)thiazol-2-yl]acetamide]
8 | 11 | 145 to 148 | 3.3 | Cc1[nH]c2ccccc2c1-c1csc(NC(=O)Cc2cn3c(C)csc3n2)n1 [Example 10, N-[4-(2-methyl-1H-indol-3-yl)thiazol-2-yl]-2-(3-methylimidazo[2,1-b]thiazol-6-yl)acetamide]

The remaining lines, values behind:

Row | SMILES | Kd (human TET2 construct) [µM] | melting point [°C] | EC50 (HL60 cell line) [µM]
9 | Cc1ccc2[nH]cc(-c3csc(NC(=O)Cc4cn5ccsc5n4)n3)c2c1 [Example 24, 2-(imidazo[2,1-b]thiazol-6-yl)-N-[4-(5-methyl-1H-indol-3-yl)thiazol-2-yl]acetamide] | 1 | 160 to 162 | 0.912
10 | Cc1[nH]c2cc(F)ccc2c1-c1csc(NC(=O)Cc2cn3ccsc3n2)n1 [Example 26, N-[4-(6-fluoro-2-methyl-1H-indol-3-yl)thiazol-2-yl]-2-(imidazo[2,1-b]thiazol-6-yl)acetamide] | 16 | 157 to 158 | –
11 | O=C(Cc1cn2ccsc2n1)Nc1nc(-c2c[nH]c3cccc(Br)c23)cs1 [Example 22, N-[4-(4-bromo-1H-indol-3-yl)thiazol-2-yl]-2-(imidazo[2,1-b]thiazol-6-yl)acetamide] | 2 | 233 to 235 | 0.266
12 | Cc1[nH]c2ccc(N)cc2c1-c1csc(NC(=O)Cc2cn3ccsc3n2)n1 [Example 28, N-[4-(5-amino-2-methyl-1H-indol-3-yl)thiazol-2-yl]-2-(imidazo[2,1-b]thiazol-6-yl)acetamide] | 67 | 125 to 126 | –
13 | O=C(Cc1cn2ccsc2n1)Nc1nc(-c2c[nH]c3ccc([N+](=O)[O-])cc23)cs1 [Example 23, 2-(imidazo[2,1-b]thiazol-6-yl)-N-[4-(5-nitro-1H-indol-3-yl)thiazol-2-yl]acetamide] | 15 | 232 to 234 | –
14 | Cc1[nH]c2ccccc2c1-c1csc(NC(=O)CCc2c[nH]c3ccccc23)n1 [Example 14, 3-(1H-indol-3-yl)-N-[4-(2-methyl-1H-indol-3-yl)thiazol-2-yl]propanamide] | 14 | 133 to 135 | 13.4
15 | COc1ccc2[nH]c(C)c(-c3csc(NC(=O)Cc4cn5ccsc5n4)n3)c2c1 [Example 25, 2-(imidazo[2,1-b]thiazol-6-yl)-N-[4-(5-methoxy-2-methyl-1H-indol-3-yl)thiazol-2-yl]acetamide] | 13 | 143 to 144 | –
16 | Cc1[nH]c2ccccc2c1-c1coc(NC(=O)Cc2cn3ccsc3n2)n1 [Example 5, 2-(imidazo[2,1-b]thiazol-6-yl)-N-[4-(2-methyl-1H-indol-3-yl)oxazol-2-yl]acetamide] | 21 | 122 to 124 | 12.1
17 | COc1ccc2[nH]cc(CC(=O)Nc3nc(-c4c(C)[nH]c5ccccc45)cs3)c2c1 [Example 6, 2-(5-methoxy-1H-indol-3-yl)-N-[4-(2-methyl-1H-indol-3-yl)thiazol-2-yl]acetamide] | 5 | 127 to 129 | 3.4
18 | Cc1[nH]c2ccccc2c1-c1csc(N(C)C(=O)C(C)c2cn3ccsc3n2)n1 (stereo not drawn) [Example 15, 2-(imidazo[2,1-b]thiazol-6-yl)-N-methyl-N-[4-(2-methyl-1H-indol-3-yl)thiazol-2-yl]propanamide] | 11 | 85 to 88 | 20.2
19 | Cc1[nH]c2ccccc2c1-c1csc(NC(=O)Cc2c[nH]c3cc(Cl)ccc23)n1 [Example 16, 2-(6-chloro-1H-indol-3-yl)-N-[4-(2-methyl-1H-indol-3-yl)thiazol-2-yl]acetamide] | 7 | 175 to 177 | –
20 | Cc1[nH]c2ccccc2c1-c1csc(NC(=O)Cc2cc3ccccc3o2)n1 [Example 18, 2-(benzofuran-2-yl)-N-[4-(2-methyl-1H-indol-3-yl)thiazol-2-yl]acetamide] | 5 | 198 to 200 | 7.5
21 | Cc1[nH]c2ccc([N+](=O)[O-])cc2c1-c1csc(NC(=O)Cc2cn3ccsc3n2)n1 [Example 27, 2-(imidazo[2,1-b]thiazol-6-yl)-N-[4-(2-methyl-5-nitro-1H-indol-3-yl)thiazol-2-yl]acetamide] | – | 150 to 151 | –
